These are literature values, as cited in patent US8263564B2, “Iron-carbohydrate complex compounds” (Vifor (International) AG, priority 2007, dated 2012).

This series relates to mice. The settings on record: intravenously on mice; Berenbaum et al. 1960 cited in Geisser et al. 1992.

On to `O=S(=O)([O-])[O-].[Fe+2]` [Fe(II) sulfate], for which the LD50 was 11 mg of Fe/kg of body weight.
